Results as given in PMC12631912, “A Multifunctional Molecular Probe for Multimodal Imaging‐Guided Potent Photothermal/Photodynamic Therapy of Endometriosis” (Advanced Science, 2025).

Assays:
[1] = T1 relaxivity (r1) of probe solutions by MRI; type: physicochemical; details: in PBS, 3.0 T MRI scanner, room temperature; slope of 1/T1 versus Gd concentration; n = 3 regions of interest
Method: An inversion recovery spin echo sequence was executed with the parameters: repetition time (TR) = 5.27 ms, echo time (TE) = 2.29 ms, field of view (FOV) = 160 mm × 160 mm, acquisition matrix = 336 × 336, acquisition voxel = 0.48 mm × 0.48 mm × 2 mm, slice thickness = 2 mm, reconstruction matrix = 672 × 672, reconstruction voxel = 0.24 mm × 0.24 mm × 2 mm, number of flip angles = 4 (3°, 6°, 9°, 13°), and NSA = 1. Regions of interest (ROI, average size 10 mm^2) were analyzed to acquire the T1 relaxation times. The r 1 was then calculated based on the slope of the linear plot between 1/T1 and Gd concentration, determined through linear least‐squares regression analysis.

[2] = Photothermal heating and photothermal conversion efficiency of probe solutions; type: physicochemical; details: for temperature elevation of solution: 808 nm laser, 1.0 W cm^−2, 5 min
Method: Subsequently, a digital thermographic camera (Fluke Ti27, IR Fusion Technology, USA) was used to capture infrared thermal images and measure temperatures. The relationship between temperature values and laser irradiation duration was recorded using AnalyzIR software (4.0.0). […] The PCE (η) was subsequently calculated based on these measurements.^[ [41] ^]

[3] = test system: EESCs; assay: Intracellular ROS generation, DCFH-DA, flow cytometry; type: cell-based, human; details: C ICG = 20 µg mL^−1, 4 h, + laser (808 nm, 1.0 W cm^−2, 5 min)
Method: (§1) DCFH‐DA was utilized to evaluate the intracellular ROS production induced by molecular probes under laser irradiation. Specifically, the cells (1 × 10^4 per well) were seeded onto confocal dishes and incubated overnight at 37 °C. […] Following this, the cells were carefully rinsed three times with fresh PBS. Subsequently, the cells were irradiated with an 808 nm laser (1.0 W cm^− ^2, 5 min). Intracellular ROS levels were then visualized and analyzed using a CLSM.
(§2) Additionally, a quantitative assessment of intracellular ROS production was performed using flow cytometry under the same conditions as the above experimental conditions. […] The cells were then trypsinized and harvested. After exposure to an 808 nm laser (1.0 W cm^− ^2, 5 min), the collected cells were analyzed on an Attune NxT flow cytometer (Invitrogen, USA). The resulting data was analyzed with NovoExpress 1.4.0 software (Agilent, USA).

[4] = test system: Ishikawa cells; assay: as above; type: cell-based; details: C ICG = 20 µg mL^−1, 4 h, + laser (808 nm, 1.0 W cm^−2, 5 min)
Method: as §1, §2

[5] = test system: EESCs; assay: In vitro photothermal/photodynamic therapy, CCK-8 viability after laser; type: cell-based, human; details: CCK-8, 2 h incubation, 808 nm, 1.0 W cm^−2, 5 min, concentration of the quoted value not stated (range 2.5 to 50 µg mL^−1 ICG), mean ± SD, n = 4
Method: Ishikawa cells and EESCs were seeded in a 96‐well plate at a density of 1 × 10^4 cells per well and allowed to adhere overnight. […] Following this incubation, the cells were irradiated with an 808 nm laser (1.0 W cm^−2, 5 min). The viability of cells was measured using the CCK‐8 assay.

[6] = test system: EMS lesions; assay: In vivo photoacoustic imaging of EMS lesions; parameters: species or system BALB/c nude mice; details: EMS nude mice, ICG 4 µg g^−1 i.v., imaging to 48 h; n = 3
Method: PAI was conducted using a TomoWave LOIS‐3D series photoacoustic imaging system before injection and at 30 min, 5 h, 24 h, and 48 h post‐injection. Photoacoustic image processing and analysis were conducted using LOIS View 3D software and ImageJ 1.53e. ROIs were manually delineated on axial photoacoustic images to quantify lesion signal intensity (SI).

[7] = test system: endometriotic lesions; assay: In vivo anti-EMS efficacy, autologous transplantation model; parameters: species or system Wistar female rats; details: EMS rats, i.v. every 3 days, six times, 808 nm 1.0 W cm^−2 10 min 1 h post-administration; n = 4
Method: (§3) Mice were injected with different formulations via the tail vein every 3 days until euthanasia, with an ICG dose of 3 mg kg^−1. For groups receiving NIR laser irradiation, the procedure was conducted 1 h post‐administration with a power of 1.0 W cm^− ^2 for 10 min. Mouse body weights were recorded every 3 days, and xenograft growth was monitored using a vernier caliper. EMS rats (n = 4) underwent the same treatment strategy after 28 days of autotransplantation, with body weight changes monitored every 3 days. After 18 days of treatment, rats were euthanized for autograft size measurement. Nude mice were euthanized after 18 days for graft extraction, followed by H&E staining and TUNEL assay. Briefly, sections were deparaffinized, hydrated, stained with H&E, and visualized under an optical microscope.

[8] = test system: endometriotic lesions; assay: In vivo anti-EMS efficacy, xenograft model; parameters: species or system BALB/c nude mice; details: xenograft EMS nude mice
Method: As shown in previous references,^[ [19] ^] to establish a xenograft EMS model in nude mice, female BALB/c nude mice (5‐6 weeks, 18‐20 g) served as recipients, and female Sprague–Dawley rats (7‐9 weeks, 200–240 g) with regular 4–5 days estrous cycles were selected as donors after a week of acclimatization. Prior to surgery, nude mice received daily intramuscular β‐estradiol 17‐pentanoate (0.25 µg g^−1) for 3 days. The EMS model was induced by subcutaneous transplantation of ≈40 mg of rat uterine fragments into nude mice. The uterine horns from euthanized donors were sterilely collected, bisected, minced, and suspended in DMEM/F12 medium before injection. Nude mice then received β‐estradiol 17‐pentanoate (0.25 µg g^−1) injections every 2 days, and endometriotic lesions reaching 100 mm^3 were used for subsequent experiments.
as §3
TUNEL staining was performed following the instructions provided in the FITC TUNEL Cell Apoptosis Detection Kit (G1501, Servicebio, Wuhan). Paraffin sections were dewaxed, hydrated, repaired with proteinase K, and permeabilized with Triton X‐100. After incubating with buffer at room temperature for 10 min, a reaction solution containing TdT enzyme, dUTP, and buffer (1:5:50 ratio) was added and incubated at 37 °C for 1 h. Nuclei were counterstained with DAPI for 10 min, followed by three 5 min PBS washes (pH 7.4) on a decolorizing shaker. The slides were then blocked with an anti‐fluorescence quenching blocker (G1401, Sevier, Wuhan). The slides were visualized under CLSM with DAPI (blue light, excited at 330–380 nm, emitted at 420 nm) and FITC (green light, excited at 465–495 nm, emitted at 515–555 nm).

Row | Substance | T 1 relaxivities (r 1) [1] | temperature elevation of solution ([2]; C ICG = 50 µg mL^−1 in PBS) | intracellular ROS, normalized fluorescence intensity (DCFH-DA) [3] | intracellular ROS, normalized fluorescence intensity (DCFH-DA) [4] | cell viability after laser irradiation [5] | PA signal in lesions over time [6] | inhibition of lesion growth, probe + laser [7] | H&E histology of ectopic lesions, probe + laser ([8]; after 18 days of treatment) | maximum temperature increase ([2]; 50 µg/mL, 1 W/cm², laser on/off, 5 photothermal cycles (Figure S12a)) | Photothermal conversion efficiency (PCE) ([2]; C ICG = 50 µg mL^−1 in PBS, 808 nm, 1 W/cm², calculated from heating and cooling curves) | therapeutic efficacy, probe + laser ([8]; ICG 3 mg kg^−1 i.v. every 3 days, 808 nm 1.0 W cm^−2 10 min, 18 days, n = 5) | TUNEL assay of lesions, probe + laser ([8]; after 18 days of treatment)
1 | ICG‐lys‐DTPA@Gd [ILD] | 5.37 mM⁻¹ s⁻¹ | ≈ 20 °C | 93.85% | 88.54% | 55.35 ± 1.1% | rapid signal attenuation | superior efficacy in inhibiting lesion growth compared to the other groups | pronounced graft growth suppression | – | – | – | –
2 | c(RGDyK)‐ICG‐lys‐DTPA@Gd (head to tail) [cRGD‐ILD, targeting theranostic probe integrating cRGD peptide, ICG fragment and DTPA@Gd complex] | 4.85 mM⁻¹ s⁻¹ | ≈ 20 °C | 96.99% | 94.2% | 30.27 ± 2.02% | sustained elevated PA signal intensities at 5 and 24 h | superior efficacy in inhibiting lesion growth compared to the other groups | pronounced graft growth suppression | ≈ 45 °C | 29.81% | outperformed the ILD + laser combination | peak apoptotic activity
